Measurements published in patent US20070179060A1, “6-(Poly-substituted aryl)-4-aminopicolinates and their use as herbicides” (priority 2006, published 2007).

Key:
Assay in all cases: Postemergence herbicidal safening in cereal crops
Assay type in all cases: in vivo
Conditions in all cases: Table 5, applied alone, after 3 weeks
[1] = test system: Galium aparine
Procedure: (§1) Seeds of the desired test plant species were planted in Sun Gro MetroMix® 306 planting mixture, which typically has a pH of 6.0 to 6.8 and an organic matter content of about 30 percent, in plastic pots with a surface area of 103.2 square centimeters. When required to ensure good germination and healthy plants, a fungicide treatment and/or other chemical or physical treatment was applied. The plants were grown for 7-36 days in a greenhouse with an approximate 14 hour photoperiod which was maintained at about 18° C. during the day and 17° C. during the night. Nutrients and water were added on a regular basis and supplemental lighting was provided with overhead metal halide 1000-Watt lamps as necessary. The plants were employed for testing when they reached the second or third true leaf stage. Treatments consisted of compound 42 and cloquintocet-mexyl alone and in combination. Weighed amounts were placed in 25 mL glass vials and dissolved in a volume of 97:3 v/v acetone/DMSO to obtain 9 mg ai/mL stock solutions. […] A dilution solution was prepared by mixing 1 volume of 97:3 v/v acetone/DMSO and 2 volumes of an aqueous mixture containing acetone, water, isopropyl alcohol, DMSO, Agri-dex crop oil concentrate, and Triton® X-77 surfactant in a 64.7:26.0:6.7:2.0:0.7:0.01 v/v ratio. Compound requirements are based upon a 12 mL application volume at a rate of 187 L/ha. […] Formulated compounds were applied to the plant material with an overhead Mandel track sprayer equipped with a […] nozzles calibrated to deliver 187 L/ha over an application area of 0.503 square meters at a spray height of 18 inches (43 cm) above average plant canopy height. Control plants were sprayed in the same manner with the solvent blank. The treated plants and control plants were placed in a greenhouse as described above and watered by sub-irrigation to prevent wash-off of the test compounds. After 3 weeks the condition of the test plants as compared with that of the untreated plants was determined visually and scored on a scale of 0 to 100 percent where 0 corresponds to no injury and 100 corresponds to complete kill. Colby's equation was used to determine the herbicidal effects expected from the mixtures (Colby, S. R. 1967. Calculation of the synergistic and antagonistic response of herbicide combinations. Weeds 15:20-22.). The following equation was used to calculate the expected activity of mixtures containing two active ingredients, A and B: Expected=A+B-(A×B/100) • A=observed efficacy of active ingredient A at the same concentration as used in the mixture. • B=observed efficacy of active ingredient B at the same concentration as used in the mixture.

[2] = test system: Hordeum vulgare (winter barley)
Procedure: as §1

[3] = test system: Papaver rhoeas
Procedure: as §1

[4] = test system: Triticum aestivum (spring wheat)
Procedure: as §1

CCCCCC(C)OC(=O)COc1ccc(Cl)c2cccnc12 (stereo not shown) [Cloquintocetmexyl, cloquintocet-mexyl]
0%: % Control GALAP Ob ([1]; 35 g ai/ha) | % Control GALAP Ob ([1]; 70 g ai/ha) | % Control GALAP Ob ([1]; 140 g ai/ha) | % Control GALAP Ob ([1]; 280 g ai/ha) | % Control HORVW Ob ([2]; 35 g ai/ha) | % Control HORVW Ob ([2]; 70 g ai/ha) | % Control HORVW Ob ([2]; 140 g ai/ha) | % Control HORVW Ob ([2]; 280 g ai/ha) | % Control PAPRH Ob ([3]; 35 g ai/ha) | % Control PAPRH Ob ([3]; 70 g ai/ha) | % Control PAPRH Ob ([3]; 140 g ai/ha) | % Control PAPRH Ob ([3]; 280 g ai/ha) | % Control TRZAS Ob ([4]; 35 g ai/ha) | % Control TRZAS Ob ([4]; 70 g ai/ha) | % Control TRZAS Ob ([4]; 140 g ai/ha) | % Control TRZAS Ob ([4]; 280 g ai/ha)
